In US10485235B2, “Aryloxypyrimidinyl ethers as herbicides” (FMC Corporation, priority 2015, dated 2019):

Legend:
Type in all cases: in vivo
[1] = tested on: ragweed (common ragweed, Ambrosia elatior); test: Test A preemergence, ragweed; settings: Preemergence, 0 to 100 scale (0 no effect, 100 complete control)
Excerpt: (§1) Seeds of plant species selected from barnyardgrass (Echinochloa crus-galli), kochia (Kochia scoparia), ragweed (common ragweed, Ambrosia elatior), ryegrass, Italian (Italian ryegrass, Lolium multiflorum), foxtail, giant (giant foxtail, Setaria faberii), and pigweed (Amaranthus retroflexus), were planted into a blend of loam soil and sand and treated preemergence with a directed soil spray using test chemicals formulated in a non-phytotoxic solvent mixture which included a surfactant.
(§2) At the same time, plants selected from these weed species and also wheat (Triticum aestivum), corn (Zea mays), blackgrass (Alopecurus myosuroides), and galium (catchweed bedstraw, Galium aparine), were planted in pots containing the same blend of loam soil and sand and treated with postemergence applications of test chemicals formulated in the same manner. Plants ranged in height from 2 to 10 cm and were in the one- to two-leaf stage for the postemergence treatment. Treated plants and untreated controls were maintained in a greenhouse for approximately 10 days, after which time all treated plants were compared to untreated controls and visually evaluated for injury. Plant response ratings, summarized in Table A, are based on a 0 to 100 scale where 0 is no effect and 100 is complete control. A dash (—) response means no test result.

[2] = tested on: galium (catchweed bedstraw, Galium aparine); test: Test A postemergence, galium; settings: postemergence, 0 to 100 scale, 0 is no effect, 100 is complete control, approximately 10 days
Excerpt: as §1, §2

[3] = tested on: ducksalad (Heteranthera limosa); test: Test B flooded paddy test, ducksalad; settings: 250 g ai/ha, Flood; visual rating after 13 to 15 days; scale 0 to 100, 0 is no effect, 100 is complete control
Experimental: (§3) Plant species in the flooded paddy test selected from rice (Oryza sativa), sedge, umbrella (small-flower umbrella sedge, Cyperus difformis), ducksalad (Heteranthera limosa), and barnyardgrass (Echinochloa crus-galli) were grown to the 2-leaf stage for testing. At time of treatment, test pots were flooded to 3 cm above the soil surface, treated by application of test compounds directly to the paddy water, and then maintained at that water depth for the duration of the test. Treated plants and controls were maintained in a greenhouse for 13 to 15 days, after which time all species were compared to controls and visually evaluated. Plant response ratings, summarized in Table B, are based on a scale of 0 to 100 where 0 is no effect and 100 is complete control. A dash (—) response means no test result.

[4] = tested on: sedge, umbrella (small-flower umbrella sedge, Cyperus difformis); test: Test B flooded paddy test, umbrella sedge; settings: 250 g ai/ha, Flood; visual rating after 13 to 15 days; scale 0 to 100, 0 is no effect, 100 is complete control
Experimental: as §3

[5] = tested on: wheat (Triticum aestivum); test: Test A postemergence, wheat; settings: postemergence, 0 to 100 scale, 0 is no effect, 100 is complete control, approximately 10 days
Excerpt: as §1, §2

[6] = tested on: foxtail, giant (giant foxtail, Setaria faberii); test: Test A preemergence, giant foxtail; settings: Preemergence, 0 to 100 scale (0 no effect, 100 complete control)
Excerpt: as §1, §2

[7] = tested on: foxtail, giant (giant foxtail, Setaria faberii); test: Test A postemergence, giant foxtail; settings: postemergence, 0 to 100 scale, 0 is no effect, 100 is complete control, approximately 10 days
Excerpt: as §1, §2

[8] = tested on: barnyardgrass (Echinochloa crus-galli); test: Test A postemergence, barnyardgrass; settings: postemergence, 0 to 100 scale, 0 is no effect, 100 is complete control, approximately 10 days
Excerpt: as §1, §2

[9] = tested on: blackgrass (Alopecurus myosuroides); test: Test A postemergence, blackgrass; settings: postemergence, 0 to 100 scale, 0 is no effect, 100 is complete control, approximately 10 days
Excerpt: as §1, §2

[10] = tested on: ryegrass, Italian (Italian ryegrass, Lolium multiflorum); test: Test A postemergence, Italian ryegrass; settings: postemergence, 0 to 100 scale, 0 is no effect, 100 is complete control, approximately 10 days
Excerpt: as §1, §2

rice (Oryza sativa) = test: Test B flooded paddy test, rice; settings: 250 g ai/ha, Flood; visual rating after 13 to 15 days; scale 0 to 100, 0 is no effect, 100 is complete control
Experimental: as §3

[11] = tested on: pigweed (Amaranthus retroflexus); test: Test A postemergence, pigweed; settings: postemergence, 0 to 100 scale, 0 is no effect, 100 is complete control, approximately 10 days
Excerpt: as §1, §2

corn (Zea mays) = test: Test A postemergence, corn; settings: postemergence, 0 to 100 scale, 0 is no effect, 100 is complete control, approximately 10 days
Excerpt: as §1, §2

[12] = tested on: barnyardgrass (Echinochloa crus-galli); test: Test A preemergence, barnyardgrass; settings: Preemergence, 0 to 100 scale (0 no effect, 100 complete control)
Excerpt: as §1, §2

kochia (Kochia scoparia) [13] = test: Test A postemergence, kochia; settings: postemergence, 0 to 100 scale, 0 is no effect, 100 is complete control, approximately 10 days
Excerpt: as §1, §2

[14] = tested on: ryegrass, Italian (Italian ryegrass, Lolium multiflorum); test: Test A preemergence, Italian ryegrass; settings: Preemergence, 0 to 100 scale (0 no effect, 100 complete control)
Excerpt: as §1, §2

[15] = tested on: ragweed (common ragweed, Ambrosia elatior); test: Test A postemergence, ragweed; settings: postemergence, 0 to 100 scale, 0 is no effect, 100 is complete control, approximately 10 days
Excerpt: as §1, §2

kochia (Kochia scoparia) [16] = test: Test A preemergence, kochia; settings: Preemergence, 0 to 100 scale (0 no effect, 100 complete control)
Excerpt: as §1, §2

[17] = tested on: barnyardgrass (Echinochloa crus-galli); test: Test B flooded paddy test, barnyardgrass; settings: 250 g ai/ha, Flood; visual rating after 13 to 15 days; scale 0 to 100, 0 is no effect, 100 is complete control
Experimental: as §3

[18] = tested on: pigweed (Amaranthus retroflexus); test: Test A preemergence, pigweed; settings: Preemergence, 0 to 100 scale (0 no effect, 100 complete control)
Excerpt: as §1, §2

SMILES	Plant response rating, Ragweed ([1]; 125 g ai/ha)	Plant response rating, Ragweed ([1]; 500 g ai/ha)	Plant response rating, Galium ([2]; 125 g ai/ha)	Plant response rating, Galium ([2]; 500 g ai/ha)	Plant response rating, Ducksalad [3]	Plant response rating, Sedge, Umbrella [4]	Plant response rating, Wheat ([5]; 125 g ai/ha)	Plant response rating, Wheat ([5]; 500 g ai/ha)	Plant response rating, Foxtail, Giant ([6]; 125 g ai/ha)	Plant response rating, Foxtail, Giant ([6]; 500 g ai/ha)	Plant response rating, Foxtail, Giant ([7]; 125 g ai/ha)	Plant response rating, Foxtail, Giant ([7]; 500 g ai/ha)	Plant response rating, Barnyardgrass ([8]; 125 g ai/ha)	Plant response rating, Barnyardgrass ([8]; 500 g ai/ha)	Plant response rating, Blackgrass ([9]; 125 g ai/ha)	Plant response rating, Blackgrass ([9]; 500 g ai/ha)	Plant response rating, Ryegrass, Italian ([10]; 125 g ai/ha)	Plant response rating, Ryegrass, Italian ([10]; 500 g ai/ha)	Plant response rating, Rice (rice (Oryza sativa))	Plant response rating, Pigweed ([11]; 125 g ai/ha)	also measured
CC(C)CCCOc1c(Br)cccc1Oc1ncc(Cl)cn1 [Compound 11]	0	0	70	100	0	0	0	20	90	100	20	60	10	90	0	40	0	20	0	60	Plant response rating, Pigweed ([11]; 500 g ai/ha): 100; Plant response rating, Corn (corn (Zea mays); 125 g ai/ha): 30; Plant response rating, Corn (corn (Zea mays); 500 g ai/ha): 30; Plant response rating, Barnyardgrass ([12]; 125 g ai/ha): 20; Plant response rating, Barnyardgrass ([12]; 500 g ai/ha): 90; Plant response rating, Kochia (kochia (Kochia scoparia) [13]; 125 g ai/ha): 20; Plant response rating, Kochia (kochia (Kochia scoparia) [13]; 500 g ai/ha): 90; Plant response rating, Ryegrass, Italian ([14]; 125 g ai/ha): 0; Plant response rating, Ryegrass, Italian ([14]; 500 g ai/ha): 30; Plant response rating, Ragweed ([15]; 125 g ai/ha): 0; Plant response rating, Ragweed ([15]; 500 g ai/ha): 0; Plant response rating, Kochia (kochia (Kochia scoparia) [16]; 125 g ai/ha): 0; Plant response rating, Kochia (kochia (Kochia scoparia) [16]; 500 g ai/ha): 0; Plant response rating, Barnyardgrass [17]: 0; Plant response rating, Pigweed ([18]; 125 g ai/ha): 0; Plant response rating, Pigweed ([18]; 500 g ai/ha): 80
CC(C)CCOc1c(Br)cccc1Oc1ncc(Cl)cn1 [Compound 12]	0	0	70	100	0	0	0	20	90	100	10	100	10	100	20	60	0	30	0	70	Plant response rating, Pigweed ([11]; 500 g ai/ha): 100; Plant response rating, Corn (corn (Zea mays); 125 g ai/ha): 30; Plant response rating, Corn (corn (Zea mays); 500 g ai/ha): 30; Plant response rating, Barnyardgrass ([12]; 125 g ai/ha): 70; Plant response rating, Barnyardgrass ([12]; 500 g ai/ha): 100; Plant response rating, Kochia (kochia (Kochia scoparia) [13]; 125 g ai/ha): 90; Plant response rating, Kochia (kochia (Kochia scoparia) [13]; 500 g ai/ha): 100; Plant response rating, Ryegrass, Italian ([14]; 125 g ai/ha): 0; Plant response rating, Ryegrass, Italian ([14]; 500 g ai/ha): 40; Plant response rating, Ragweed ([15]; 125 g ai/ha): 10; Plant response rating, Ragweed ([15]; 500 g ai/ha): 20; Plant response rating, Kochia (kochia (Kochia scoparia) [16]; 125 g ai/ha): 0; Plant response rating, Kochia (kochia (Kochia scoparia) [16]; 500 g ai/ha): 70; Plant response rating, Barnyardgrass [17]: 0; Plant response rating, Pigweed ([18]; 125 g ai/ha): 40; Plant response rating, Pigweed ([18]; 500 g ai/ha): 100
N#Cc1cccc(Oc2ncc(Cl)cn2)c1OCC(F)(F)C(F)F [Compound 14]	0	0	50	100	0	0	20	40	100	100	80	100	80	100	60	90	10	50	0	100	Plant response rating, Pigweed ([11]; 500 g ai/ha): 100; Plant response rating, Corn (corn (Zea mays); 125 g ai/ha): 20; Plant response rating, Corn (corn (Zea mays); 500 g ai/ha): 50; Plant response rating, Barnyardgrass ([12]; 125 g ai/ha): 90; Plant response rating, Barnyardgrass ([12]; 500 g ai/ha): 100; Plant response rating, Kochia (kochia (Kochia scoparia) [13]; 125 g ai/ha): 100; Plant response rating, Kochia (kochia (Kochia scoparia) [13]; 500 g ai/ha): 100; Plant response rating, Ryegrass, Italian ([14]; 125 g ai/ha): 10; Plant response rating, Ryegrass, Italian ([14]; 500 g ai/ha): 70; Plant response rating, Ragweed ([15]; 125 g ai/ha): 10; Plant response rating, Ragweed ([15]; 500 g ai/ha): 20; Plant response rating, Kochia (kochia (Kochia scoparia) [16]; 125 g ai/ha): 90; Plant response rating, Kochia (kochia (Kochia scoparia) [16]; 500 g ai/ha): 100; Plant response rating, Barnyardgrass [17]: 0; Plant response rating, Pigweed ([18]; 125 g ai/ha): 100; Plant response rating, Pigweed ([18]; 500 g ai/ha): 100
N#Cc1cccc(Oc2ncc(Cl)cn2)c1OCC(F)F [Compound 16]	60	90	30	90	30	0	0	20	100	100	30	100	20	90	10	90	0	80	0	90	Plant response rating, Pigweed ([11]; 500 g ai/ha): 100; Plant response rating, Corn (corn (Zea mays); 125 g ai/ha): 20; Plant response rating, Corn (corn (Zea mays); 500 g ai/ha): 70; Plant response rating, Barnyardgrass ([12]; 125 g ai/ha): 80; Plant response rating, Barnyardgrass ([12]; 500 g ai/ha): 100; Plant response rating, Kochia (kochia (Kochia scoparia) [13]; 125 g ai/ha): 100; Plant response rating, Kochia (kochia (Kochia scoparia) [13]; 500 g ai/ha): 100; Plant response rating, Ryegrass, Italian ([14]; 125 g ai/ha): 10; Plant response rating, Ryegrass, Italian ([14]; 500 g ai/ha): 40; Plant response rating, Ragweed ([15]; 125 g ai/ha): 10; Plant response rating, Ragweed ([15]; 500 g ai/ha): 60; Plant response rating, Kochia (kochia (Kochia scoparia) [16]; 125 g ai/ha): 100; Plant response rating, Kochia (kochia (Kochia scoparia) [16]; 500 g ai/ha): 100; Plant response rating, Barnyardgrass [17]: 0; Plant response rating, Pigweed ([18]; 125 g ai/ha): 100; Plant response rating, Pigweed ([18]; 500 g ai/ha): 100
FC(F)COc1c(Br)cccc1Oc1ncc(Cl)cn1 [Compound 17]	0	30	30	80	85	80	0	20	100	100	40	100	20	90	10	90	0	70	0	100	Plant response rating, Pigweed ([11]; 500 g ai/ha): 100; Plant response rating, Corn (corn (Zea mays); 125 g ai/ha): 20; Plant response rating, Corn (corn (Zea mays); 500 g ai/ha): 50; Plant response rating, Barnyardgrass ([12]; 125 g ai/ha): 80; Plant response rating, Barnyardgrass ([12]; 500 g ai/ha): 100; Plant response rating, Kochia (kochia (Kochia scoparia) [13]; 125 g ai/ha): 100; Plant response rating, Kochia (kochia (Kochia scoparia) [13]; 500 g ai/ha): 100; Plant response rating, Ryegrass, Italian ([14]; 125 g ai/ha): 10; Plant response rating, Ryegrass, Italian ([14]; 500 g ai/ha): 70; Plant response rating, Ragweed ([15]; 125 g ai/ha): 0; Plant response rating, Ragweed ([15]; 500 g ai/ha): 40; Plant response rating, Kochia (kochia (Kochia scoparia) [16]; 125 g ai/ha): 90; Plant response rating, Kochia (kochia (Kochia scoparia) [16]; 500 g ai/ha): 100; Plant response rating, Barnyardgrass [17]: 0; Plant response rating, Pigweed ([18]; 125 g ai/ha): 100; Plant response rating, Pigweed ([18]; 500 g ai/ha): 100
